Here are results for two compounds from patent EP4436951B1, “USE OF AURANTIAMIDE ACETATE IN THE TREATMENT OF HYPERTENSION” (Akdeniz Universitesidoner Sermaye Isletme Mudurlugu, priority 2021, dated 2023).

One series deals with erythrocytes. Briefly: Erythrocyte deformability by ektacytometer (laser diffraction) after 4-week treatment. The class given is in vivo, Wistar rats. The conditions noted are these: 37°C. The text has this: (§1) 5 experimental groups were formed to observe the effects of aurantiamide acetate. Eight […] male Wistar rats were used in each group. The experimental groups created are as follows: • 1. Control group, • 2. SHAM operated (the abdominal cavity is opened and closed by suturing again without any procedure) group, • 3. Aurantiamide acetate (ASP) administered group, • 4. Hypertension (HT) group, • 5. Hypertension+aurantiamide acetate (HT+ASP) administered group.
(§2) Aurantiamide acetate was applied to the ASP and HT+ASP groups among the experimental groups. A 100 mM stock was prepared by dissolving 10 mg of aurantiamide acetate in 225 µl of dimethyl sulfoxide (DMSO). For 200 g rat, µl of aurantiamide acetate was administered in 100 µl. Weekly 2.5 mg/kg of aurantiamide acetate was administered intraperitoneally for 4 weeks, 0.5 mg/kg daily, 5 days a week. In total, each rat was given 10 mg/kg of aurantiamide acetate. […]
Erythrocyte deformability was measured in the experimental groups. […] Erythrocyte deformability was evaluated by laser diffraction analysis at various fluid shear forces. […] Thus, the deformability of erythrocytes in response to increased shear forces was determined. […] The erythrocyte deformability was calculated by the system as an elongation index. Elongation index (EI) values were measured between nine shear forces (0.30 - 75.02 Pa). […]

Series [1] is described as follows: Change in body weight during the administration period. Format: in vivo, Wistar rats. The conditions noted are these: between the experimental groups, Day 0 and end of 4th week.
Text: as §1
as §2, with “acetate. To eliminate the effects of daily intraperitoneal (i.p.) injection; equal volumes (100 µl) of i.p.DMSO were injected into the rats of control group, SHAM-operated group, and hypertension group.” for “acetate.”
The initial weights of the rats were measured in the range of 180-200 g. The weights of each rat before the experiment (Day 0) and after the experiment (at the end of the 4th week) were recorded. […]

The subject of series [2] is 2K-1C renovascular hypertension. Briefly: Blood pressure by non-invasive tail-cuff method in rats, Goldblatt two kidneys single clip (2K-1C) hypertension model. Format: in vivo, Wistar rats.
Text: as §1
Hypertension was induced in rats with the Goldblatt model with two kidneys and a single clip (2K-1C). In this model, no operation was performed on the right kidney. The left renal artery was narrowed to 0.22 mm in diameter. In the surgical hypertension model created, renin secretion by the kidney with decreased blood flow led to increased angiotensin II (ANG II) formation and therefore an increase in blood pressure. Sodium excretion by the intact contralateral kidney increases as blood pressure increases (pressure natriuresis), therefore, there was no sodium retention. The rats were anesthetized intraperitoneally before the operation. In the creation of the hypertension model, 90 mg/kg ketamine and 10 mg/kg xylazine were administered intraperitoneally for anesthesia. After anesthesia, the abdomens of the rats were shaved and disinfected with betadine. After disinfection, a midline incision was made and the left kidney was exposed. The left renal artery was isolated from the renal vein, and to induce 2K-1C renovascular hypertension, the circumference of the left renal artery was narrowed gently to 0.22 mm in diameter by 5/0 non-absorbable silicone-coated silk sutures The same procedure was applied to SHAM operated group rats, but the left renal artery was not narrowed. Postoperatively, the peritoneum was sutured with 3/0 absorbable polyglycan suture and the skin layer was sutured with 3/0 non-absorbable silk suture. In the hypertension model, it was waited for 1 week to observe the increase in blood pressure in the hypertension and hypertension+aurantiamide acetate groups, and then blood pressure was measured.
The blood pressures of the animals were measured by the non-invasive tail-cuff method. An occlusive cuff and a piezoelectric impact sensor are placed around the tail. Arterial blood pressure measurements were taken weekly at the same time of day (9:00 am to 12:00 am) to avoid influencing the circadian cycle. Basal blood pressure was measured after delivery of each rat, and blood pressures were recorded regularly every week for 4 weeks until sacrifice. The data acquisition system reported blood pressure (mmHg) as systolic, diastolic, and mean. Each measurement was repeated three times and the average of these three data was taken.
(§3) Aurantiamide acetate was applied to the ASP and HT+ASP groups among the experimental groups. A 100 mM stock was prepared by dissolving 10 mg of aurantiamide acetate in 225 µl of dimethyl sulfoxide (DMSO). For 200 g rat, µl of aurantiamide acetate was administered in 100 µl. Weekly 2.5 mg/kg of aurantiamide acetate was administered intraperitoneally for 4 weeks, 0.5 mg/kg daily, 5 days a week. In total, each rat was given 10 mg/kg of aurantiamide acetate. To eliminate the effects of daily intraperitoneal (i.p.) injection; equal volumes (100 µl) of i.p.DMSO were injected into the rats of control group, SHAM-operated group, and hypertension group. Changes in body weight, blood pressure values, erythrocyte deformability, vascular isolation, and vascular tone were investigated in the experimental groups during the experiment.
Blood pressure values were examined in the experimental groups during the experimental period.

For series [3] the following is noted: cited from earlier work; for decrease in concentrations: 4 hours after administration; for decrease in concentrations / time to maximum plasma concentration / accumulation in tissues: rats; for decrease in concentrations / accumulation in tissues: oral; for toxic effects: administrations up to 100mg/kg; for time to maximum plasma concentration: oral administration of Portulaca oleracea L extracts.

In a further series the test system is Thoracic Aorta. Briefly: Vascular tone of isolated thoracic aorta rings in organ bath after 4-week treatment (KCl, Phe, ACh and SNP protocols). The class given is in vivo, Wistar rats.
Text: as §1, §3
Vascular isolation was investigated in the experimental groups. The rats in all experimental groups were anesthetized with intraperitoneal ketamine/xylazine (45 mg/kg ketamine and 10 mg/kg xylazine) anesthesia at the end of the 4-week experimental period. After their abdomens were opened, blood was drawn from their abdominal aorta to obtain plasma as well as for use in measuring deformability, and rats were sacrificed by anemia. The thoracic aorta was quickly opened and the thoracic aorta was separated from the other tissues, and removed. As soon as the thoracic aorta tissue is removed, it was taken into a beaker containing Krebs solution (110 mM sodium chloride (NaCl), 5 mM potassium chloride (KCI), 24 mM sodium bicarbonate (NaHCO3), 1 mM mono potassium phosphate (KH2PO4), 1 mM magnesium sulfate heptahydrate (MgSO4.7H2O), 2.5 mM calcium chloride (CaCl2), 10 mM glucose, 0.02 mM ethylenediamine tetraacetic acid (EDTA); pH=7.4). After the tissue was washed with cold Krebs, the dissection stage was started. For the microdissection stage, the thoracic aorta, taken in a petri dish containing cold Krebs, is fixed to the medium, and fat and connective tissue were removed from the artery at the appropriate magnification by using a dissecting microscope. The isolated thoracic aorta is divided into rings of appropriate length. In addition, the rest of the aorta tissue was removed and stored under appropriate conditions for histological and biochemical parameters. Vascular tone was evaluated in the experimental groups. Vascular tone in the experimental groups was analyzed as in the previous work of the project team. After the isolated thoracic aorta is divided into 2 - 2.5 mm long rings; it was gasified with a gas mixture containing 95% O2 - 5% CO2, and it was placed in an organ bath with 10 ml of Krebs solution at 37°C and pH 7.4. After the vessel rings are attached to the isometric transducer by means of a tight rope by hanging them on steel wires, they were washed every 15 minutes under 1 gram relaxation tension and rested for a total of 60 minutes. If the tension changed after each wash, attention was paid to bring it back to 1 gram of tension. After a one-hour relaxation tension (rest period), the vitalization stage, which is the prepulse stage, was applied to the vessels. For this process, after applying Krebs solution containing 20 mM potassium chloride (KCI), phenylephrine (Phe) was added at a concentration of 10^-7 M. This process was repeated 3 times in succession. After the vitalization procedure, the vessels were washed with Krebs solution and an additional 30-minute resting period was started. […]

[4] abbreviates: aurantiamide acetate group (no hypertension) vs control and SHAM, p>0.05.

Each structure is given as a SMILES string.

Regarding `CC(=O)OC[C@H](Cc1ccccc1)NC(=O)[C@H](Cc1ccccc1)NC(=O)c1ccccc1` [aurantiamide acetate], the “erythrocyte deformability, Elmax values” with erythrocytes (setting [4]) was “no difference”. Moreover, the erythrocyte deformability result in the series with erythrocytes (hypertension + aurantiamide acetate group compared to hypertension group, p<0.01) is listed as “significant increase”. For the same compound, the “body weights before and after” value in series [1] was “no significant difference”. For the same compound, the “mean arterial blood pressure” value in series [2] (ASP group (no hypertension), second week, compared with control and SHAM operated groups, p<0.05, 0.5 mg/kg daily i.p., 5 days a week) was “significantly lower”; in series [2] (ASP group (no hypertension), third week, compared with control group, p<0.05, 0.5 mg/kg daily i.p., 5 days a week), “significantly lower”; in series [2] (HT+ASP group, last week (week 4), compared to HT group, p<0.001) it was “significant decrease”; in series [2] (HT+ASP group, second week, compared to HT group, p<0.001, 0.5 mg/kg daily i.p., 5 days a week), “significant decrease”; in series [2] (HT+ASP group, second week, compared with control, SHAM and ASP groups, p<0.001), “significantly higher”; in series [2] (HT+ASP group, third week, compared to HT group, p<0.001), “significant decrease”. The “mean arterial blood pressure” value in series [2] (HT+ASP group, third week, compared with ASP group only, p<0.001) was “significantly higher”; in series [2] (HT+ASP group, week 4, no difference from control, SHAM and ASP groups (p>0.05)) it was “reduced to basal levels”; in series [2] (within ASP group according to the weeks, p>0.05) it was “did not show a significant difference”. Moreover, the decrease in concentrations entry in series [3] is “approximately 90%”. The toxic effects result in series [3] is “No toxic effects”. Further, in series [3], the “time to maximum plasma concentration” value was “approximately 12 minutes”. Also, the accumulation in tissues result in series [3] is given as “no long-term accumulation”. Besides, the “ACh-mediated relaxation response (endothelium-dependent)” value in the series on Thoracic Aorta (setting [4]) is “no difference”; in the series with Thoracic Aorta (hypertension+aurantiamide acetate group vs hypertension group, p<0.05 and p<0.01), “improvement”. Further, the Phe-mediated contractile response result is recorded as “no differences” in the series with Thoracic Aorta (setting [4]); “significantly reduced” with Thoracic Aorta (hypertension+aurantiamide acetate group compared to hypertension group, p<0.05 and p<0.001). In addition, the “SNP-mediated relaxation response (endothelium-independent)” value is recorded as “no statistical difference” with Thoracic Aorta (setting [4]) and “no difference” in the series with Thoracic Aorta (hypertension+aurantiamide acetate group compared to hypertension group, p>0.05). Besides, the KCl-mediated contractile response result in the series on Thoracic Aorta (aurantiamide acetate group (no hypertension) vs control, SHAM and hypertension groups, 20, 40 and 80 mM KCl, p>0.05) is given as “no differences”; in the series with Thoracic Aorta (hypertension+aurantiamide acetate group compared to the other groups, increasing KCl concentrations, p<0.001), “significantly lower”.
In the case of `O=C(N[C@@H](Cc1ccccc1)C(=O)N[C@H](CO)Cc1ccccc1)c1ccccc1` [aurantiamide], in series [3], the decrease in concentrations result is “approximately 90%”, the toxic effects result is listed as “No toxic effects”, the “time to maximum plasma concentration” value is reported as “approximately 12 minutes” and the accumulation in tissues entry is “no long-term accumulation”.
